Test results reported in US20260132132A1, “3A,4,5,6-TETRAHYDRO-1 H-PYRAZOLO[3,4-C]PYRIDIN-7(7AH)-ONE DERIVATIVES AS FACTOR XIIA INHIBITORS” (KALVISTA PHARMACEUTICALS LIMITED, priority 2022, published 2026).

Tests used:
[1] = target: T1, Human Factor XIIa (hFXIIa) (Homo sapiens, UniProt P00748); experiment: Determination of Human Factor XIIa (hFXIIa) inhibition, fluorogenic substrate IC50 assay; assay type: biochemical; conditions: fluorogenic substrate H-DPro-Phe-Arg-AFC at Km, 25° C., read-out: Human FXIIa IC50
T1 construct: purchased Enzyme Research Laboratories
T1 sequence (P00748 373-615 limits assumed): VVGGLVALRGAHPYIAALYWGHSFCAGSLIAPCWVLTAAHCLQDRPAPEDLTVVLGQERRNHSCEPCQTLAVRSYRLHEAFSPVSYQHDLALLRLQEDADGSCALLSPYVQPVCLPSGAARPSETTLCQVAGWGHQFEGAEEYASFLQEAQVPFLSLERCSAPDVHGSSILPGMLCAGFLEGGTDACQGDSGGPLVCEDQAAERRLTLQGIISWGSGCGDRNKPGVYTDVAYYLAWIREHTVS
T1 sequence (P00748 20-372 partner limits assumed): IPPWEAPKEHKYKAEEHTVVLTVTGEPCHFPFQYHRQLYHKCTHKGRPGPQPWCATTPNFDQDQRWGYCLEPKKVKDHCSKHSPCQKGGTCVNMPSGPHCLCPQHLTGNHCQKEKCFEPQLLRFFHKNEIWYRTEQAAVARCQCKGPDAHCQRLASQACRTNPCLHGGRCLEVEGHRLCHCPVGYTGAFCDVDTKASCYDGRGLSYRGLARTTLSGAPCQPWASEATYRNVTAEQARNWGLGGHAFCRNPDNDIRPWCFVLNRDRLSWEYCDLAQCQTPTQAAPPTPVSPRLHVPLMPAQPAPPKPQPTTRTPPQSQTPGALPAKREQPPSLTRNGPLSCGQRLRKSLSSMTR
Description: Determination of Human Factor XIIa (hFXIIa) inhibition
The Km for the cleavage of the substrate by hFXIIa was determined by standard transformation of the Michaelis-Menten equation, with subsequent inhibition assays performed at substrate Km concentration.

FXa = FXa (Homo sapiens, UniProt P00742); experiment: Related protease inhibition: FXa, fluorogenic substrate; assay type: biochemical; conditions: fluorogenic substrate at Km, 25° C., H1-H3 = % activity at 40 μM; for activity at 40 µM: read-out: IC50 (human FXa) nM
Description: (§1) Human serine protease enzyme Plasma Kallikrein, KLK1, FXa, Plasmin, Thrombin and Trypsin were assayed for enzymatic activity using an appropriate fluorogenic substrate at Km concentration, FXIa at fixed substrate concentration of 100 μM and various concentrations of the test compound.

[2] = Pharmacokinetics following a single intravenous dose and a single oral dose in rats; assay type: in vivo; conditions: rat, male Sprague-Dawley rats, single iv dose (nominal 1 mg/kg) and single oral dose (nominal 5 mg/kg) in 10% DMSO/10% Cremophor EL/80% SWFI, plasma by LCMS, Phoenix WinNonlin; for bioavailability: read-out: F % (oral bioavailability); for half-life: route for T½ not stated
Description: Pharmacokinetic studies of the compounds in Table 10 were performed to assess the pharmacokinetics following a single intravenous dose and a single oral dose in male Sprague-Dawley rats. Two rats were given a single intravenous dose of 1 ml/kg of a nominal 1 mg/ml (1 mg/kg) composition of test compound in 10% DMSO/10% Cremophor EL/80% SWFI vehicle. Two rats were given a single oral dose of 5 mL/kg of a nominal 1 mg/ml (5 mg/kg) composition of test compound in 10% DMSO/10% Cremophor EL/80% SWFI vehicle.
Following intravenous dosing, blood samples were collected over a period of 12 h. Sample times were 2, 5, 15 and 30 min then 1, 2, 4, 6, and 12 h. Following oral dosing, blood samples were collected over a period of 24 h. Sample times were 5, 15 and 30 min then 1, 2, 4, 6, 8, 12 and 24 h.
Following collection, blood samples were centrifuged and the plasma fraction analysed for concentration of test compound by LCMS. Oral bioavailability and half-life calculations from these studies were obtained using Phoenix WinNonlin (v8.0) and are shown below: […]

Thrombin = Thrombin (Homo sapiens, UniProt P00734); experiment: Related protease inhibition: Thrombin, fluorogenic substrate; assay type: biochemical; conditions: fluorogenic substrate at Km, 25° C.; H1-H3 = % activity at 40 μM; read-out: IC50 (human thrombin) nM
Description: as §1

[3] = test system: patients with type I/II hereditary angioedema (HAE); conditions: phase 3 study; monthly prophylactic subcutaneous treatment; cited from earlier work

Chain of FXa (P00742 235-488 limits assumed): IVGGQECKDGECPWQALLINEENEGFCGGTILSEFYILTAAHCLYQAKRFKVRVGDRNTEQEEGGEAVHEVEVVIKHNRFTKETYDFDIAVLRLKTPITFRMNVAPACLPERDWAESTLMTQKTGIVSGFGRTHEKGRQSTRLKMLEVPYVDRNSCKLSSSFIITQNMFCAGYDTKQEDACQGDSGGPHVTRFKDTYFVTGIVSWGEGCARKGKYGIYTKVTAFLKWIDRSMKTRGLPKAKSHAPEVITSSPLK
Chain of FXa (P00742 41-179 partner limits assumed): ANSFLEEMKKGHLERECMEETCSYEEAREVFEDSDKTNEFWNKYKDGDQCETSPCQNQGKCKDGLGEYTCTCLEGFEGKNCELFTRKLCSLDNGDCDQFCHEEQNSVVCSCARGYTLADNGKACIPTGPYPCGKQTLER

Compound	IC50 [1] [nM]	IC50 (FXa) [nM]	bioavailability [2] [%]	half-life [2] [h]	activity at 40 µM (Thrombin) [%]	activity at 40 µM (FXa) [%]	attacks in patients with type I/II hereditary angioedema (HAE) [3]
CN1CCc2ccc(N3CCc4c(C(=O)N[C@H](CO)c5ccccc5)nn(-c5cccc(Cl)c5)c4C3=O)cc2C1 [Example 1024, (S)-1-(3-Chlorophenyl)-N-(2-hydroxy-1-phenylethyl)-6-(2-methyl-1,2,3,4-tetrahydroisoquinolin-7-yl)-7-oxo-4,5,6,7-tetrahydro-1H-pyrazolo[3,4-c]pyridine-3-carboxamide]	100 to 300	1000 to 3000	36	5.47	–	–	–
O=C(NCC1CC1)c1nn(-c2cccc(Cl)c2)c2c1CCN(c1ccc3c(c1)CN(CCO)CC3)C2=O [Example 1055, 1-(3-Chlorophenyl)-N-(cyclopropylmethyl)-6-(2-(2-hydroxyethyl)-1,2,3,4-tetrahydroisoquinolin-7-yl)-7]	10 to 100	> 40000	55	4.62	–	–	–
Cc1cc(C)c(CNC(=O)c2nn(-c3cccc(Cl)c3)c3c2CCN(c2ccc4c(c2)CN(CCO)CC4)C3=O)cn1 [Example 1128, 1-(3-Chlorophenyl)-N-((4,6-dimethylpyridin-3-yl)methyl)-6-(2-(2-hydroxyethyl)-1,2,3,4-tetrahydroisoquinolin-7-yl)-7-oxo-4,5,6,7-tetrahydro-1H-pyrazolo[3,4-c]pyridine-3-carboxamide]	10 to 100	10000 to 40000	27	4.55	–	–	–
CN1CCc2ccc(N3CCc4c(C(=O)NCC5CC5)nn(-c5cccc(Cl)c5)c4C3=O)cc2C1=O [Example 1149, 1-(3-chlorophenyl)-N-(cyclopropylmethyl)-6-(2-methyl-1-oxo-1,2,3,4-tetrahydroisoquinolin-7-yl)-7-oxo-4,5,6,7-tetrahydro-1H-pyrazolo[3,4-c]pyridine-3-carboxamide]	300 to 1000	> 40000	56	2.22	–	–	–
Cc1cc(CNC(=O)c2nn(-c3cccc(Cl)c3)c3c2CCN(c2cc4c(cn2)CCN(CCO)C4)C3=O)nn1C [Example 1220, 1-(3-chlorophenyl)-N-((1,5-dimethyl-1H-pyrazol-3-yl)methyl)-6-(6-(2-hydroxyethyl)-5,6,7,8-tetrahydro-2,6-naphthyridin-3-yl)-7-oxo-4,5,6,7-tetrahydro-1H-pyrazolo[3,4-c]pyridine-3-carboxamide]	10 to 100	10000 to 40000	22	1.17	–	–	–
Cc1cc(CNC(=O)c2nn(-c3cccc(Cl)c3)c3c2CCN(c2ccc4c(c2)C(=O)N(CCO)CC4)C3=O)nn1C [Example 1222, 1-(3-chlorophenyl)-N-((1,5-dimethyl-1H-pyrazol-3-yl)methyl)-6-(2-(2-hydroxyethyl)-1-oxo-1,2,3,4-tetrahydroisoquinolin-7-yl)-7-oxo-4,5,6,7-tetrahydro-1H-pyrazolo[3,4-c]pyridine-3-carboxamide]	10 to 100	–	5	0.583	–	–	–
CN1CCc2ccc(N3CCc4c(C(=O)N[C@@H]5CCOC5)nn(-c5cccc(Cl)c5F)c4C3=O)cc2C1=O [Example 2039, (R)-1-(3-chloro-2-fluorophenyl)-6-(2-methyl-1-oxo-1,2,3,4-tetrahydroisoquinolin-7-yl)-7-oxo-N-(tetrahydrofuran-3-yl)-4,5,6,7-tetrahydro-1H-pyrazolo[3,4-c]pyridine-3-carboxamide]	100 to 300	> 40000	27	0.75	–	–	–
CN1CCOc2ccc(N3CCc4c(C(=O)N[C@@H]5CCOC5)nn(-c5cccc(Cl)c5F)c4C3=O)cc2C1=O [Example 2048, (R)-1-(3-chloro-2-fluorophenyl)-6-(4-methyl-5-oxo-2,3,4,5-tetrahydrobenzo[f][1,4]oxazepin-7-yl)-7-oxo-N-(tetrahydrofuran-3-yl)-4,5,6,7-tetrahydro-1H-pyrazolo[3,4-c]pyridine-3-carboxamide]	10 to 100	–	57	0.817	> 80	20 to 80	–
CN1CCOc2ccc(N3CCc4c(C(=O)N[C@@H](CO)C5CC5)nn(-c5cccc(Cl)c5F)c4C3=O)cc2C1=O [Example 2049, (R)-1-(3-chloro-2-fluorophenyl)-N-(1-cyclopropyl-2-hydroxyethyl)-6-(4-methyl-5-oxo-2,3,4,5-tetrahydrobenzo[f][1,4]oxazepin-7-yl)-7-oxo-4,5,6,7-tetrahydro-1H-pyrazolo[3,4-c]pyridine-3-carboxamide]	10 to 100	–	28	1.42	> 80	< 20	–
Garadacimab: "a monoclonal antibody inhibitory against FXIIa"	–	–	–	–	–	–	reduce attacks
